Structures are written as SMILES.

A short description of data set [1]: Vapour adsorption and vapour desorption (moisture sorption isotherm). In kind it is physicochemical. Conditions: 25° C. On the procedure:
The moisture sorption isotherm was recorded using a Dynamic Vapour Sorption Analyzer IGA Sorp from Hiden Analytical. The measuring temperature was 25° C. There was no sample preparation.

Data set [2] can be described thus: Water uptake / hygroscopicity at customary environmental conditions. The class given is physicochemical. The method, then:
The compound of the formula (I) is hygroscopic and, at customary environmental conditions (20-35° C., atmospheric pressure), takes up up to about 6% by weight of water even at a relative atmospheric humidity above 20% rh. At an atmospheric humidity of 30% rh, the uptake of 6% by weight of water is almost complete. If the atmospheric humidity decreases below 30% rh, the compound of the formula (I) releases part of the water it comprises. This uptake of water or release of water renders handling of the compound of the formula (I), for example weighing operations, and the production of the compound of the formula (I) in a uniform, stable and definined form for use in medicaments or the production of medicaments comprising compound of the formula (I) more difficult. In particular, this increases the technical expenditure during the production of administration forms comprising the compound of the formula (I), such as, for example, tablets, granules or drink solutions, since measures for controlling and regulating atmospheric humidity are required to maintain a uniform concentration of the compound of the formula (I). […]

The next data set is described as follows: Solubility in water. Conditions: comparison in words. In kind it is physicochemical. The method, then:
Method: Saturated solutions of the test substance were prepared by stirring a suspension in water at 25° C. for 16 hours. The suspensions obtained were then filtered, and the content in the filtrate was determined by HPLC.

Data set [3] relates to recombinant A549 cell line with luciferase reporter under hypoxia-responsible elements. The data set can be described thus: Cellular, functional in vitro test (luciferase reporter under hypoxia-responsible elements). The note with it: Homo sapiens; A549-derived luciferase reporter cell line. The class given is cell-based. The text has this:
The activity of the compounds according to the invention is quantified with the aid of a recombinant cell line. The cell is originally derived from a human lung carcinoma cell line (A549, ATCC: American Type Culture Collection, Manassas, Va. 20108, USA). The test cell line is transfected in a stable manner with a vector which contains the reporter gene of Photinus pyralis luciferase (called luciferase in the following) under the control of an artificial minimal promoter. The minimal promoter comprises two hypoxia-responsible elements upstream of a TATA box [Oehme F., Ellinghaus P., Kolkhof P., Smith T. J., Ramakrishnan S., Hatter J., Schramm M., Flamme I., Biochem. Biophys. Res. Commun. 296 (2), 343-9 (2002)]. Under the effect of hypoxia (e.g. culturing in the presence of 1% oxygen for 24 hours) or under the action of non-selective dioxygenase inhibitors (e.g. desferroxamine in a concentration of 100 μM, cobalt chloride in a concentration of 100 μM or N-oxalylglycine diethyl ester in a concentration of 1 mM), the test cell line produces luciferase, which can be detected and quantified with the aid of suitable bioluminescence reagents (e.g. Steady-Glo® Luciferase Assay System, Promega Corporation, Madison, Wis. 53711, USA) and a suitable luminometer. […]

Take `Oc1c(-n2ccnn2)cnn1-c1cc(N2CCOCC2)ncn1` [Compound of the formula (I), 1-[6-(morpholin-4-yl)pyrimidin-4-yl]-4-(1H-1,2,3-triazol-1-yl)-1H-pyrazol-5-ol, reference compound]: the Desorption in data set [1] (5% rh) was 0.1% (5% rh).
On to `[Na+].[O-]c1c(-n2ccnn2)cnn1-c1cc(N2CCOCC2)ncn1` [Compound of the formula (II), sodium 1-[6-(morpholin-4-yl)pyrimidin-4-yl]-4-(1H-1,2,3-triazol-1-yl)-1H-pyrazol-5-olate], for which the water comprised entry in data set [2] is recorded as “less than 0.5 % by weight”. For the same molecule, the “solubility in water compared to the compound of the formula (I)” value in “Solubility in water” is on record as “higher solubility in water”. Moreover, the Adsorption in data set [1] (0% rh) and in data set [1] (10% rh) was 0% throughout. The Desorption in data set [1] (0% rh), in data set [1] (10% rh) and in data set [1] (20% rh) was 0% each time. For the same molecule, the EC50 in data set [3] was 7 µM.

Values taken from US9533972B2, “Substituted sodium-1H-pyrazole-5-olate” (Bayer Intellectual Property GmbH, priority 2010, dated 2017).
